Columns and labels:
[1] = test system: HMGB1 and proinflammatory cytokines; assay: renal IRI model: HMGB1 and cytokine levels; type: in vivo; settings: mice
Protocol: (§1) Mice were anesthetized with isoflurane using a vaporizer and placed on a heating pad to maintain their body temperature at 37° C. Both renal arteries were identified through dorsal incisions and clamped for 20, 30, 35, or 37 minutes. Reperfusion was confirmed visually upon release of the clamps. Surgical wounds were closed, and mice were administered 1 mL of saline i.p. The mice were kept in a warm incubator until they regained consciousness and were allowed to recover with ad libitum access to food and water. […] Serum and kidney tissue were collected 24 hours after renal IRI.
Inflammatory cytokine mRNA and protein levels were measured by real-time PCR and ELISA, respectively. Kidney tissue and serum were harvested after reperfusion for 24 h. Total RNA was extracted from frozen kidney tissue using TRIzol reagent (15596018; Invitrogen), according to the manufacturer's protocol. RNA was converted to cDNA using oligo-dT primers. IL-17, TNF-α, and […] levels were determined by real-time PCR with SYBR green PCR Master Mix and the primers listed in Table 1. For ELISA, frozen kidney tissues were homogenized in phosphate buffer. Serum IL-17 (M1700; R&D Systems), TNF-α (MTAOOB; R&D Systems), and IL-10β (MLBOOC; R&D Systems) were measured using commercial ELISA kits according to the manufacturer's instructions.

[2] = test system: PGE2 production by cell lines; assay: PGE2 production by cell lines; type: cell-based
PGE2 levels = assay: renal IRI model: time course of PGE2 in kidney tissue and serum; type: in vivo, mice
Protocol: as §1
[…] Next, the kidney tissues (˜20 mg) were homogenized in 500 μL of cold PBS containing indomethacin (10 μg/mL) using a tissue homogenizer. The suspension was sonicated in an ice-water bath for 1 minute using cycles of 10 seconds of sonication with 10 seconds of cooling, and they were then centrifuged for 10 minutes at 12,000 rpm. The supernatant was collected for PGE2 assay. Protein concentrations were determined by BCA assay (23225; Thermo Scientific). The PGE2 level in the supernatant was measured using a PGE2 ELISA Kit (SKGE004B; R&D Systems) in triplicate. PGE2 levels were expressed as ng PGE2/mg protein.

mice = assay: toxicity after IP injection into mice
mice with ischemic AKI = assay: survival and body weight over 7 days after renal IRI; type: in vivo; settings: bilateral IRI 30 minutes, 5 mg/kg i.p. once pre-IRI then twice daily for 7 days
Protocol: (A) Experimental setup for toxicity. Ischemic AKI induced by bilaterally clamping the renal arteries for 30 minutes, followed by reperfusion. […] (n=10 per group). (B, C) Survival curves and body weight over 7 days. Kaplan-Meier analysis of survival stratified by AKI stage. Data are means±SEM. *P<0.05 vs. corresponding BI30_vehicle.

[3] = stability on incubation with hepatocyte cell lines; type: in vitro ADME
[4] = real-time PCR and ELISA, 3 doses 5 mg/kg
[5] = real-time PCR at POD1, vs IRI-vehicle

Compound: CCCC[S+]([O-])c1sc2nc(-c3cccs3)cc(-c3ccccc3)c2c1N (centres unmarked) [SW033291]
- IL-1B protein ([1]; ELISA, 3 doses 5 mg/kg): reductions
- reduction of HMGB1 protein level compared to the IRI-vehicle group ([1]; kidney tissue, western blot, 3 doses 5 mg/kg): 30%
- induction of IL-17 [1, 4]: blockade of induction
- induction of TNF-α [1, 4]: blockade of induction
- IL-24 mRNA [1, 5]: significantly induces
- anti-inflammatory cytokine IL-4 mRNA [1, 5]: significantly induces
- anti-inflammatory cytokine IL-10 mRNA [1, 5]: significantly induces
- PGE2 production by cell lines [2]: increase PGE2 production by cell lines
- serum PGE2 level (PGE2 levels; BI30 mice at 24 hours, prophylaxis): significantly decreased
- post-IRI peaks of renal PGE2 at 0.5 and 14 hours (PGE2 levels; IRI mice, single pre-IRI dose, kidney tissue): substantially block
- renal PGE2 peak over baseline before IRI (PGE2 levels; mice, single pre-IRI dose, kidney tissue): 5.12 fold
- toxicity (mice; IP into mice at 0.3 μmole/per mouse twice daily for 21 days): no toxicity
- immediate toxicity over 24 hours (mice; IP into mice at 0.6 μmole/per mouse): no immediate toxicity
- immediate toxicity over 24 hours (mice; IP into mice at 1.2 μmole/per mouse): no immediate toxicity
- body weight at POD7 (mice with ischemic AKI): regained greater weights than did vehicle treated mice
- survival (mice with ischemic AKI): survived at 7 days
- chemical stability when incubated with hepatocyte cell lines [3]: chemically stable
